Values quoted from earlier work in patent publication US20030216431A1, “Ophthalmic pharmaceutical compositions and methods for treating ocular inflammation” (priority 2002, published 2003).

Settings: for daily dosage causing serious retinopathy: systemic use in patients, nearly all instances

| time to onset of definite retinopathy (dosage slightly greater than 250 mg chloroquine diphosphate per day) | daily dosage causing serious retinopathy | duration of intake without clinically evident retinopathy (not exceeding 250 mg diphosphate or 200 mg sulfate per day) | SMILES |
| --- | --- | --- | --- |
| one to three | more than 250 mg per day |  | CCN(CC)CCCC(C)Nc1ccnc2cc(Cl)ccc12 (stereo not shown) [chloroquine diphosphate, Quinoline, 7-chloro-4-((4-(diethylamino)-1-methylbutyl)amino)-, diphosphate] |
|  | > 200 mg per day |  | CCN(CC)CCCC(C)Nc1ccnc2cc(Cl)ccc12.O=S(=O)(O)O (stereo not shown) [chloroquine sulfate, Quinoline, 7-chloro-4-((4-(diethylamino)-1-methylbutyl)amino)-, sulfate] |
|  |  | nine | CCN(CC)CCCC(C)Nc1ccnc2cc(Cl)ccc12 (stereo not shown) [chloroquine, Chloroquine] |
